Assay results reported in patent US20210045385A1, “PYRIDAZINONE-SUBSTITUTED KETOXIMES AS HERBICIDES” (FMC Corporation, priority 2018, published 2021).

Experiments:
Assay type in all cases: in vivo
[1] = system: sedge, umbrella (small-flower umbrella sedge, Cyperus difformis); experiment: Test B flooded paddy test, visual plant response rating; conditions: 250 g ai/ha, Flood, applied to paddy water, 2-leaf stage, evaluated after 13 to 15 days
How it was run: (§1)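 Greenhouse paddy conditions applied: two-leaf plants, a 3 cm flood above the soil surface maintained throughout, and compound added to the water rather than the foliage. Plants were judged visually against controls at 13 to 15 days.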

[2] = system: ducksalad (Heteranhera limosa); experiment: as above; conditions: 250 g ai/ha, Flood, applied to paddy water, 2-leaf stage, evaluated after 13 to 15 days
How it was run: as §1

rice (Oryza sativa) = experiment: as above; conditions: 250 g ai/ha, Flood, applied to paddy water, 2-leaf stage, evaluated after 13 to 15 days
How it was run: as §1

[3] = system: barnyardgrass (Echinochloa crus-galli); experiment: as above; conditions: 250 g ai/ha, Flood, applied to paddy water, 2-leaf stage, evaluated after 13 to 15 days
How it was run: as §1

[4] = system: pigweed (Amaranthus retroflexus); experiment: Test A postemergence, visual plant response rating; conditions: for Pigweed plant response rating: Postemergence, 125 g ai/ha, 0 to 100 scale (0 no effect, 100 complete control)
How it was run: (§2)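 Compared with untreated controls, treated plants received a visual injury score on a 0–100 scale around 10 days after application. The compound, in a non-phytotoxic solvent with surfactant, was given as a preemergence soil spray or postemergence at the one- to two-leaf stage.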

[5] = system: ragweed (common ragweed, Ambrosia elatior); experiment: Test A postemergence, visual plant response rating; conditions: for Ragweed plant response rating: Postemergence, 125 g ai/ha, 0 to 100 scale (0 no effect, 100 complete control)
How it was run: as §2

[6] = system: foxtail, giant (giant foxtail, Setaria faberii); experiment: Test A postemergence, visual plant response rating; conditions: for Foxtail, Giant plant response rating: Postemergence, 125 g ai/ha, 0 to 100 scale (0 no effect, 100 complete control)
How it was run: as §2

[7] = system: wheat (Triticum aestivum); experiment: Test A postemergence, visual plant response rating; conditions: for Wheat plant response rating: Postemergence, 125 g ai/ha, 0 to 100 scale (0 no effect, 100 complete control)
How it was run: as §2

[8] = system: Italian ryegrass (Lolium multiflorum); experiment: Test A postemergence, visual plant response rating; conditions: for Ryegrass, Italian plant response rating: Postemergence, 125 g ai/ha, 0 to 100 scale (0 no effect, 100 complete control)
How it was run: as §2

[9] = system: galium (catchweed bedstraw, Galium aparine); experiment: Test A postemergence, visual plant response rating; conditions: for Galium plant response rating: Postemergence, 125 g ai/ha, 0 to 100 scale (0 no effect, 100 complete control)
How it was run: as §2

corn (Zea mays) = experiment: Test A postemergence, visual plant response rating; conditions: for Corn plant response rating: Postemergence, 125 g ai/ha, 0 to 100 scale (0 no effect, 100 complete control)
How it was run: as §2

kochia (Kochia scoparia) [10] = experiment: Test A postemergence, visual plant response rating; conditions: for Kochia plant response rating: Postemergence, 125 g ai/ha, 0 to 100 scale (0 no effect, 100 complete control)
How it was run: as §2

[11] = system: blackgrass (Alopecurus myosuroides); experiment: Test A postemergence, visual plant response rating; conditions: for Blackgrass plant response rating: Postemergence, 125 g ai/ha, 0 to 100 scale (0 no effect, 100 complete control)
How it was run: as §2

[12] = system: barnyardgrass (Echinochloa crus-galli); experiment: Test A postemergence, visual plant response rating; conditions: for Barnyardgrass plant response rating: Postemergence, 125 g ai/ha, 0 to 100 scale (0 no effect, 100 complete control)
How it was run: as §2

[13] = system: pigweed (Amaranthus retroflexus); experiment: Test A preemergence, visual plant response rating; conditions: for Pigweed plant response rating: preemergence, 0 to 100 scale, 0 no effect, 100 complete control; for Pigweed plant response rating (0 to 100 scale): 500 g ai/ha Preemergence, approx. 10 days
How it was run: as §2

[14] = system: ragweed (common ragweed, Ambrosia elatior); experiment: Test A preemergence, visual plant response rating; conditions: for Ragweed plant response rating: preemergence, 0 to 100 scale, 0 no effect, 100 complete control; for Ragweed plant response rating (0 to 100 scale): 500 g ai/ha Preemergence, approx. 10 days
How it was run: as §2

[15] = system: foxtail, giant (giant foxtail, Setaria faberii); experiment: Test A preemergence, visual plant response rating; conditions: for Foxtail, Giant plant response rating: preemergence, 0 to 100 scale, 0 no effect, 100 complete control; for Foxtail, Giant plant response rating (0 to 100 scale): 500 g ai/ha Preemergence, approx. 10 days
How it was run: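 Ratings use a 0–100 visual scale (100 = complete control) against untreated controls, scored about 10 days after greenhouse treatment. Test chemicals were formulated in surfactant-containing non-phytotoxic solvent and applied either as soil spray after planting (preemergence) or onto one- to two-leaf, 2–10 cm plants (postemergence).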

[16] = system: Italian ryegrass (Lolium multiflorum); experiment: Test A preemergence, visual plant response rating; conditions: for Ryegrass, Italian plant response rating: preemergence, 0 to 100 scale, 0 no effect, 100 complete control; for Ryegrass, Italian plant response rating (0 to 100 scale): 500 g ai/ha Preemergence, approx. 10 days
How it was run: as §2

kochia (Kochia scoparia) [17] = experiment: Test A preemergence, visual plant response rating; conditions: for Kochia plant response rating: preemergence, 0 to 100 scale, 0 no effect, 100 complete control; for Kochia plant response rating (0 to 100 scale): 500 g ai/ha Preemergence, approx. 10 days
How it was run: as §2

[18] = system: barnyardgrass (Echinochloa crus-galli); experiment: Test A preemergence, visual plant response rating; conditions: for Barnyardgrass plant response rating: preemergence, 0 to 100 scale, 0 no effect, 100 complete control; for Barnyardgrass plant response rating (0 to 100 scale): 500 g ai/ha Preemergence, approx. 10 days
How it was run: as §2

[19] = 500 g ai/ha, postemergence, 0 is no effect, 100 is complete control
[20] = 1000 g ai/ha Postemergence, approx. 10 days

CON=C(c1ccc(F)cc1C)c1c(O)c(C)nn(C)c1=O [Compound 41]
60: Ragweed plant response rating (0 to 100 scale) [5, 19] | Ryegrass, Italian plant response rating (0 to 100 scale) [8, 19] | Kochia plant response rating (0 to 100 scale) (kochia (Kochia scoparia) [10]; [19])
30: Ragweed plant response rating [5]
20: Wheat plant response rating (0 to 100 scale) [7, 19] | Kochia plant response rating (kochia (Kochia scoparia) [10]) | Ryegrass, Italian plant response rating (0 to 100 scale) [16]
40: Pigweed plant response rating [4]
70: Galium plant response rating (0 to 100 scale) [9, 19] | Galium plant response rating [9]
0: Plant response rating, Sedge, Umbrella (0 to 100 scale, 0 is no effect, 100 is complete control) [1] | Plant response rating, Ducksalad (0 to 100 scale, 0 is no effect, 100 is complete control) [2] | Plant response rating, Rice (0 to 100 scale, 0 is no effect, 100 is complete control) (rice (Oryza sativa)) | Plant response rating, Barnyardgrass (0 to 100 scale, 0 is no effect, 100 is complete control) [3] | Foxtail, Giant plant response rating (0 to 100 scale) [6, 19] | Foxtail, Giant plant response rating [6] | Wheat plant response rating [7] | Ryegrass, Italian plant response rating [8] | Corn plant response rating (0 to 100 scale) (corn (Zea mays); [19]) | Corn plant response rating (corn (Zea mays)) | Blackgrass plant response rating (0 to 100 scale) [11, 19] | Blackgrass plant response rating [11] | Barnyardgrass plant response rating (0 to 100 scale) [12, 19] | Barnyardgrass plant response rating [12] | Pigweed plant response rating ([13]; 125 g ai/ha) | Ragweed plant response rating ([14]; 125 g ai/ha) | Foxtail, Giant plant response rating ([15]; 125 g ai/ha) | Foxtail, Giant plant response rating (0 to 100 scale) [15] | Ryegrass, Italian plant response rating ([16]; 125 g ai/ha) | Kochia plant response rating (kochia (Kochia scoparia) [17]; 125 g ai/ha) | Kochia plant response rating (0 to 100 scale) (kochia (Kochia scoparia) [17]) | Barnyardgrass plant response rating ([18]; 125 g ai/ha)
90: Pigweed plant response rating (0 to 100 scale) [4, 19]
80: Pigweed plant response rating (0 to 100 scale) [13] | Ragweed plant response rating (0 to 100 scale) [14]
10: Barnyardgrass plant response rating (0 to 100 scale) [18]

Cc1cccc(/C(=N/OC(C)C)c2c(O)c(C)nn(C)c2=O)c1 [Compound 18]
80: Ragweed plant response rating ([14]; 1000 g ai/ha)
30: Kochia plant response rating (0 to 100 scale) (kochia (Kochia scoparia) [10]; [20]) | Barnyardgrass plant response rating ([18]; 1000 g ai/ha)
20: Wheat plant response rating (0 to 100 scale) [7, 20] | Foxtail, Giant plant response rating ([15]; 1000 g ai/ha)
50: Kochia plant response rating (kochia (Kochia scoparia) [17]; 1000 g ai/ha)
0: Plant response rating, Sedge, Umbrella (0 to 100 scale, 0 is no effect, 100 is complete control) [1] | Plant response rating, Ducksalad (0 to 100 scale, 0 is no effect, 100 is complete control) [2] | Plant response rating, Rice (0 to 100 scale, 0 is no effect, 100 is complete control) (rice (Oryza sativa)) | Plant response rating, Barnyardgrass (0 to 100 scale, 0 is no effect, 100 is complete control) [3] | Corn plant response rating (0 to 100 scale) (corn (Zea mays); [20])
10: Blackgrass plant response rating (0 to 100 scale) [11, 20] | Barnyardgrass plant response rating (0 to 100 scale) [12, 20]
40: Foxtail, Giant plant response rating (0 to 100 scale) [6, 20]
100: Ragweed plant response rating (0 to 100 scale) [5, 20] | Pigweed plant response rating ([13]; 1000 g ai/ha)
90: Pigweed plant response rating (0 to 100 scale) [4, 20] | Galium plant response rating (0 to 100 scale) [9, 20]
60: Ryegrass, Italian plant response rating (0 to 100 scale) [8, 20] | Ryegrass, Italian plant response rating ([16]; 1000 g ai/ha)

CCON=C(c1cccc(C)c1)c1c(O)c(C)nn(C)c1=O (mixture of isomers) [Compound 6]
80: Pigweed plant response rating (0 to 100 scale) [4, 20] | Kochia plant response rating (0 to 100 scale) (kochia (Kochia scoparia) [10]; [20]) | Ryegrass, Italian plant response rating ([16]; 1000 g ai/ha)
50: Foxtail, Giant plant response rating (0 to 100 scale) [6, 20] | Ragweed plant response rating ([14]; 1000 g ai/ha)
10: Blackgrass plant response rating (0 to 100 scale) [11, 20]
0: Plant response rating, Sedge, Umbrella (0 to 100 scale, 0 is no effect, 100 is complete control) [1] | Plant response rating, Ducksalad (0 to 100 scale, 0 is no effect, 100 is complete control) [2] | Plant response rating, Rice (0 to 100 scale, 0 is no effect, 100 is complete control) (rice (Oryza sativa)) | Plant response rating, Barnyardgrass (0 to 100 scale, 0 is no effect, 100 is complete control) [3] | Wheat plant response rating (0 to 100 scale) [7, 20] | Corn plant response rating (0 to 100 scale) (corn (Zea mays); [20])
70: Ryegrass, Italian plant response rating (0 to 100 scale) [8, 20] | Pigweed plant response rating ([13]; 1000 g ai/ha)
20: Kochia plant response rating (kochia (Kochia scoparia) [17]; 1000 g ai/ha)
90: Ragweed plant response rating (0 to 100 scale) [5, 20] | Galium plant response rating (0 to 100 scale) [9, 20]
30: Barnyardgrass plant response rating (0 to 100 scale) [12, 20] | Foxtail, Giant plant response rating ([15]; 1000 g ai/ha) | Barnyardgrass plant response rating ([18]; 1000 g ai/ha)

C#CCO/N=C(/c1c(O)c(C)nn(C)c1=O)c1ccc(F)c2ccccc12 [Compound 109, 4-[(E)-(4-fluoro-1-naphthalenyl)[(2-propyn-1-yloxy)imino]methyl]-5-hydroxy-2,6-dimethyl-3(2H)-pyridazinone]
70: Corn plant response rating (0 to 100 scale) (corn (Zea mays); [19]) | Kochia plant response rating (kochia (Kochia scoparia) [10])
20: Corn plant response rating (corn (Zea mays))
40: Plant response rating, Ducksalad (0 to 100 scale, 0 is no effect, 100 is complete control) [2]
80: Ragweed plant response rating [5] | Foxtail, Giant plant response rating [6]
10: Kochia plant response rating (kochia (Kochia scoparia) [17]; 125 g ai/ha)
90: Pigweed plant response rating [4] | Ragweed plant response rating (0 to 100 scale) [5, 19] | Foxtail, Giant plant response rating (0 to 100 scale) [6, 19] | Wheat plant response rating (0 to 100 scale) [7, 19] | Wheat plant response rating [7] | Kochia plant response rating (0 to 100 scale) (kochia (Kochia scoparia) [10]; [19]) | Blackgrass plant response rating [11] | Barnyardgrass plant response rating (0 to 100 scale) [12, 19] | Barnyardgrass plant response rating [12] | Ragweed plant response rating ([14]; 125 g ai/ha) | Barnyardgrass plant response rating ([18]; 125 g ai/ha)
50: Plant response rating, Barnyardgrass (0 to 100 scale, 0 is no effect, 100 is complete control) [3] | Kochia plant response rating (0 to 100 scale) (kochia (Kochia scoparia) [17])
60: Plant response rating, Sedge, Umbrella (0 to 100 scale, 0 is no effect, 100 is complete control) [1]
100: Pigweed plant response rating (0 to 100 scale) [4, 19] | Ryegrass, Italian plant response rating (0 to 100 scale) [8, 19] | Ryegrass, Italian plant response rating [8] | Galium plant response rating (0 to 100 scale) [9, 19] | Galium plant response rating [9] | Blackgrass plant response rating (0 to 100 scale) [11, 19] | Pigweed plant response rating ([13]; 125 g ai/ha) | Pigweed plant response rating (0 to 100 scale) [13] | Ragweed plant response rating (0 to 100 scale) [14] | Foxtail, Giant plant response rating ([15]; 125 g ai/ha) | Foxtail, Giant plant response rating (0 to 100 scale) [15] | Ryegrass, Italian plant response rating ([16]; 125 g ai/ha) | Ryegrass, Italian plant response rating (0 to 100 scale) [16] | Barnyardgrass plant response rating (0 to 100 scale) [18]
45: Plant response rating, Rice (0 to 100 scale, 0 is no effect, 100 is complete control) (rice (Oryza sativa))
